From patent US8372971B2, “Heterocyclic compounds and methods of use” (TargeGen, Inc., priority 2004, dated 2013)
Structures can show the parent of a compound that is named as a salt. Where two headings read alike, the source gives them in different places.

Assays:
Type in all cases: cell-based, human
[1] = tested on: p-MEK and p-ERK levels in HUVECs; experiment: Western Blot, inhibition of MAPK pathway in cellular assay (Example 27); settings: at 5 uM, 50 ng/ml VEGF or FGF
Method: (§1) Western Blot: Early passage primary human umbilical vein endothelial cells (HUVECs) were maintained in EGM-2 containing SingleQuots (Cambrex, East Rutherford, N.J.), 10% FBS, 10 mM HEPES, and 50 μg/ml gentamicin. Prior to treatment of the cells with inhibitor, the HUVECs were starved for 18 h by replacing serum-containing complete media with scrum-free and SingleQuot-free media. The starved cells were pre-treated with inhibitors for 60 min at various concentrations (0-20 μM). Next the HUVECs were treated with 50 ng/ml VEGF or FGF (Peprotech, Rocky Hill, N.J.) for 6 min and the cells were immediately washed with ice-cold PBS. Cells were lysed with ice-cold RIPA buffer containing 100 mM Tris pH 7.5, 150 mM NaCl, 1 mM EDTA, 1% deoxycholate, 1% Triton X-100, 0.1% SDS, 2 mM PMSF, one Complete-Mini protease inhibitor tablet (Roche, Indianapolis, Ind.; 1 tablet/7 ml of lysis buffer) and the phophatase inhibitors NaF (500 mM) and orthovanadate (1 mM). The cells were scraped and lysates transferred and centrifuged at 15,000 g for 10 min. Supernatants were transferred to new tubes and protein concentration was quantitated using the BCA protein reagent (Pierce, Rockford, Ill.). Cell lysates containing 20 μg of total protein were separated by 10% SDS-PAGE, transferred to nitrocellulose, and blocked in 5% milk in TBST. Anti phospho-ERK Thr 202/Tyr 204 (Cell Signaling, Beverly, Mass.), anti-phospho-MEK Ser217/221 (Cell Signaling), and c-Raf (BD Biosciences Pharmingen, San Diego, Calif.) used as primary antibodies were detected with horseradish peroxidase-conjugated goat anti-mouse or rabbit secondary antibodies and bands were visualized using the SuperSignal West Pico chemiluminescence reagent system (Pierce) and Kodak X-ray film (Rochester, N.Y.).

[2] = tested on: p-MEK and p-ERK levels in HUVECs; experiment: Western Blot, inhibition of MAPK pathway in cellular assay (Example 105); settings: 50 ng/ml VEGF or FGF
Method: as §1, with “Some compounds described by the general structure (B) were tested for inhibition of MAPK pathway in cellular assay. Western” for “Western”, “serum-free” for “scrum-free”, “main.” for “min.”

HUVECs = experiment: XTT cell viability assay (Example 106); settings: 72 hours, read-out: Inhibition of HUVEC cell prolifiration (IC50)
Method: Some compounds described by the general structure (B) were tested for cell viability. XTT assay: HUVECs were seeded at 10,000 cells/well of a tissue culture treated 96-well plate treated with collagen type I and grown overnight in the complete EGM-2 media as described above. The following morning, the inhibitors were serial diluted with DMSO and added to the cells with a final DMSO concentration of 1%. After 72 hours cell viability was measured with an XTT assay (Sigma, St. Louis, Mo.). The cells were also photographed to compare morphological differences to the XTT trends observed. Determination of the IC50 values was performed with quantitative software (Prism software package, GraphPad Software, San Diego Calif.).

Row | Structure (SMILES) | Western Blot ([2]; at 5 uM) | IC50 (HUVECs; Homo sapiens, HUVEC) | further results
1 | CNC(=O)c1cc(Oc2ccc3nc(NC(=O)c4cc(C(F)(F)F)ccc4Cl)nnc3c2)ccn1 [4-[2-chloro-3-trifluoromethyl-benzoylamino)-benzo[1,2,4]triazin-7-yloxy]-pyridine-2-carboxylic acid methyl amide trifluoroacetate salt] | – | – | Western Blot [1]: not active at 5 uM
2 | CNC(=O)c1cc(Oc2ccc3nc(NS(=O)(=O)c4cc(C(F)(F)F)ccc4Cl)nnc3c2)ccn1 [4-[2-chloro-5-(trifluoromethyl-benzenesulfonylamino)-benzo[1,2,4]triazin-7-yloxy]-pyridine-2-carboxylic acid methyl amide trifluoroacetate salt] | – | – | Western Blot [1]: not active at 5 uM
3 | O=C(Nc1ccc(OC(F)(F)F)cc1)Nc1nnc2cc(Oc3ccnc(C(=O)NCCN4CCOCC4)c3)ccc2n1 [4-{3-[3-(4-Trifluoromethoxy-phenyl)-ureido]-benzo[1,2,4]triazin-7-yloxy}-pyridine-2-carboxylic acid (2-morpholin-4-yl-ethyl)-amide] | – | – | Western Blot [1]: not active at 5 uM
4 | FC(F)(F)c1cc(-c2nnc(Nc3ccc(Oc4cncnc4)cc3)[nH]2)ccc1Cl [5-[4-chloro-3-(trifluoromethyl)phenyl]-N-[4-(pyrimidin-5-yloxy)phenyl]-4H-1,2,4-triazol-3-anine trifluoroacetate salt] | active at 5 uM | > 10 µM | –
5 | Nc1cc(Oc2ccc(-c3nnc(Nc4cccc(Cl)c4)o3)cc2)nc(N)n1 [6-(4-{5-[(3-chlorophenyl)amino]-1,3,4-oxadiazol-2-yl}phenoxy) pyrimidine-2,4-diamine] | active at 5 uM | ~20 µM | –
6 | Nc1cc(Oc2ccc(-c3nnc(Nc4ccc(Cl)cc4)o3)cc2)nc(N)n1 [6-(4-{5-[(4-chlorophenyl)amino]-1,3,4-oxadiazol-2-yl}phenoxy) pyrimidine-2,4-diamine] | active at 5 uM | 2.6 µM | –
7 | Nc1cc(Oc2ccc(-c3nnc(Nc4cccc(C(F)(F)F)c4)o3)cc2)nc(N)n1 [6-[4-(5-{[3-(trifluoromethyl)phenyl]amino}-1,3,4-oxadiazol-2-yl)phenoxy}pyrimidine-2,4-diamine] | active at 5 uM | > 10 µM | –
8 | Nc1cc(Oc2ccc(-c3nnc(Nc4ccc(Cl)c(C(F)(F)F)c4)o3)cc2)nc(N)n1 [6-[4-(5-{[4-Chloro-3-trifluoromethyl-phenyl]amino}-1,3,4-oxadiazol-2-yl)-phenoxy]-pyrimidine-2,4-diamine] | active at 5 uM | 1.57 µM | –
9 | Nc1cc(Oc2ccc(Nc3nnc(-c4ccc(OC(F)(F)F)cc4)[nH]3)cc2)nc(N)n1 [6-[4-({5-[4-(trifluoromethoxy)-phenyl-4H-1,2,4-triazol-3-yl}amino)phenoxy]pyrimidine-2,4-diamine] | – | – | Western Blot ([2]; concentration not given): not active; IC50 (HUVECs): 6.58 µM
10 | Nc1cc(Oc2ccc(Nc3nnc(-c4ccc(Cl)c(C(F)(F)F)c4)[nH]3)cc2)nc(N)n1 [6-[4-({5-[4-chloro-3-(trifluoromethyl)phenyl-4H-1,2,4-triazol-3-yl}amino)phenoxy]pyrimidine-2,4-diamine trifluoroacetate salt] | active at 5 uM | 9.57 µM | –
11 | Nc1ccc(Oc2ccc(Nc3nnc(-c4ccc(Cl)c(C(F)(F)F)c4)[nH]3)cc2)nn1 [6-[4-({5-[4-chloro-3-(trifluoromethyl)phenyl]-4H-1,2,4-triazol-3-yl}amino)phenoxy]pyridazin-3-amine trifluoroacetate salt] | active at 5 uM | > 40 µM | –
12 | Nc1cc(Oc2cccc(-c3nnc(Nc4ccc(Cl)c(C(F)(F)F)c4)[nH]3)c2)nc(N)n1 [6-{3-[5-(4-chloro-3-trifluoromethyl-phenylamino)-4H-[1,2,4]triazol-3-yl]-phenoxy}-pyrimidine-2,4-diamine trifluoroacetic acid salt] | active at 5 uM | 0.404 µM | –
13 | Nc1cc(Oc2ccc(-c3nnc(Nc4ccc(Cl)c(C(F)(F)F)c4)[nH]3)cc2)nc(N)n1 [6-{4-[5-(4-chloro-3-trifluoromethyl-phenylamino)-4H-[1,2,4]-triazol-3-yl]-phenoxy}-pyrimidine-2,4-diamine] | active at 5 uM | 0.089 µM | –
14 | FC(F)(F)c1cc(Nc2nnc(-c3cccc(Oc4ccncc4)c3)[nH]2)ccc1Cl [(4-chloro-3-trifluoromethyl-phenyl)-{5-[3-(pyridin-4-yloxy)-phenyl]-4H-[1,2,4]triazol-3-yl}-amine trifluoroacetic acid salt] | active at 5 uM | 1.79 µM | –
15 | FC(F)(F)c1cc(Nc2nnc(-c3ccc(Oc4cccnc4)cc3)[nH]2)ccc1Cl [(4-chloro-3-trifluoromethyl-phenyl)-{5-[4-(pyridin-3-yloxy)-phenyl]-4H-[1,2,4]triazol-3-yl}-amine] | active at 5 uM | 1.81 µM | –
16 | FC(F)(F)c1cc(Nc2nnc(-c3ccc(Oc4cccnc4)cc3)o2)ccc1Cl [N-[4-chloro-3-(trifluoromethyl)phenyl]-5-[4-(pyridin-3-yloxy)phenyl]-1,3,4-oxadiazol-2-amine trifluoroacetate salt] | active at 5 uM | 1.72 µM | –
17 | FC(F)(F)c1cc(Nc2nnc(-c3ccc(Oc4ccncc4)cc3)o2)ccc1Cl [N-[4-chloro-3-(trifluoromethyl)phenyl]-5-[4-(pyridin-4-yloxy)phenyl]-1,3,4-oxadiazol-2-amine trifluoroacetate salt] | active at 5 uM | 8.6 µM | –
18 | FC(F)(F)c1cc(Nc2nnc(-c3ccc(Oc4cncnc4)cc3)o2)ccc1Cl [N-[4-chloro-3-(trifluoromethyl)phenyl]-5-[4-(pyrimidin-5-yloxy)phenyl]-1,3,4-oxadiazol-2-amine trifluoroacetate salt] | active at 5 uM | 9.65 µM | –
19 | O=C(Nc1nnc(-c2ccc(Oc3cccnc3)cc2)o1)c1ccccc1OC(F)(F)F [N-{5-[4-(pyridin-3-yloxy)phenyl]-1,3,4-oxadiazol-2-yl}-2-(trifluoromethoxy)-benzamide] | – | ~20 µM | Western Blot ([2]; at 10 uM): not active at 10 uM
20 | O=C(Nc1nnc(-c2ccc(Oc3cccnc3)cc2)o1)c1cccc(OC(F)(F)F)c1 [N-{5-[4-(pyridin-3-yloxy)phenyl]-1,3,4-oxadiazol-2-yl}-3-(trifluoromethoxy)-benzamide] | – | > 40 µM | Western Blot ([2]; at 10 uM): not active at 10 uM
21 | O=C(Nc1nnc(-c2ccc(Oc3cccnc3)cc2)o1)c1cccc(C(F)(F)F)c1 [N-{5-[4-(pyridin-3-yloxy)phenyl]-1,3,4-oxadiazol-2-yl}-3-(trifluoromethyl)benzamide] | – | > 40 µM | Western Blot ([2]; at 10 uM): active at 10 uM
22 | O=C(Nc1nnc(-c2ccc(Oc3cccnc3)cc2)o1)c1ccc(OC(F)(F)F)cc1 [N-{5-[4-(pyridine-3-yloxy)phenyl]-1,3,4-oxadiazol-2-yl}-4-(trifluoromethoxy)benzamide] | – | > 40 µM | Western Blot ([2]; at 10 uM): not active at 10 uM
